Literature values as cited in patent US6086919A, “Pharmaceutical composition containing the ace inhibitor ramipril and a dihydropyridine compound” (priority 1994, dated 2000).

How the values were obtained:
[1] = system: hypertensive patients; patients with clinical signs of congestive heart failure
vasodilatory effect = details: in words

SMILES: CCOC(=O)[C@H](CCc1ccccc1)N[C@@H](C)C(=O)N1[C@H](C(=O)O)C[C@@H]2CCC[C@@H]21 [ramipril]
- Sensitivity of the substance (stability): sensitive to high temperature, moisture or compression
- Mortality ([1]; clinical signs of congestive heart failure after acute myocardial infarction): reduce mortality
- Reduction of blood pressure and peripheral arterial resistance ([1]; hypertensive patients): reduction in peripheral arterial resistance and thus a reduction of the blood pressure without a compensatory rise in heart rate

SMILES: CCOC(=O)C1=C(C)NC(C)=C(C(=O)OC)C1c1cccc(Cl)c1Cl (centres unmarked) [felodipine]
- Light stability (when exposed to light): decomposed when exposed to light

SMILES: CCOC(=O)C1=C(C)NC(C)=C(C(=O)OC)[C@@H]1c1cccc(Cl)c1Cl [S form]
- Vasodilatory effect compared with the R form (vasodilatory effect): stronger than the vasodilatory effect of the R form
